The source of these data is US9351974B2, “Substituted pteridinones for the treatment of cancer” (OSI Pharmaceuticals, LLC, priority 2011, dated 2016).

T1 sequence (P51812 whole entry): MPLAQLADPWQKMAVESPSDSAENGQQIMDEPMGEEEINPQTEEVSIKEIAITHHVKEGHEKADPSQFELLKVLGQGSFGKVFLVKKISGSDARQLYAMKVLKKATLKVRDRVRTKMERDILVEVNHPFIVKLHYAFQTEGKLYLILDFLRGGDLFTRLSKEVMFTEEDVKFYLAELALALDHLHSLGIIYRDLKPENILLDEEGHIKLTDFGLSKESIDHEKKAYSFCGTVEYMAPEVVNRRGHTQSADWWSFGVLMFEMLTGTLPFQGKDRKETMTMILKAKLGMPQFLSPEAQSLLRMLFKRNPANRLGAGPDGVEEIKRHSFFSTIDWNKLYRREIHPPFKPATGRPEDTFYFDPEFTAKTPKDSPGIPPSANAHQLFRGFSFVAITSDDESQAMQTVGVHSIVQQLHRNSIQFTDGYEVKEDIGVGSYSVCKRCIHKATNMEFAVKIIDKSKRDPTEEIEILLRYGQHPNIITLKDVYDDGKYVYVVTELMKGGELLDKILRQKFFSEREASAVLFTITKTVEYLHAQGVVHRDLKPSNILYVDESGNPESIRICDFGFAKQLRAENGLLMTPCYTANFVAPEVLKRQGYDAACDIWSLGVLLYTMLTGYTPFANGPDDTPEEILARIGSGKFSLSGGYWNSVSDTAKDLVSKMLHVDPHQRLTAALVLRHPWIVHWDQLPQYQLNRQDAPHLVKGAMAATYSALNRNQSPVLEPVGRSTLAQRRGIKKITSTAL

The experiment addresses T1, His-tagged full-length RSK2 (RPS6KA3) (Homo sapiens, UniProt P51812).
T1 construct: His-tagged full-length RSK2 (RPS6KA3, Invitrogen PV3323); His; purchased Invitrogen PV3323
Kind of experiment: RSK2 Omnia Assay for compound IC50 determination. Type of experiment: biochemical. Particulars: ATP 15 μM, n=2, read-out: Mean RSK2 Biochem IC50. Put shortly:
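Initial-rate slopes from continuous kinetic reads were fitted to a four-parameter equation for IC50 (n=2). Ki was then derived by Cheng-Prusoff assuming ATP-competitive inhibition. Reactions contained 15 μM ATP (Km 16.3 μM), 5 μM Omnia ST Peptide 6, and […] in 50 mM HEPES pH 7.5, 10 mM MgCl2, 1 mM DTT, 1% DMSO. Compounds spanned 11 threefold steps, […] final.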
As for `C[C@@H]1C(=O)N(c2cccc(C#N)c2)c2cnc(Nc3cc(F)c4[nH]ncc4c3)nc2N1[C@H]1CC[C@H](C)CC1` [compound 237, 3-[(7R)-2-[(7-fluoro-1H-indazol-5-yl)amino]-7-methyl-8-(trans-4-methylcyclohexyl)-6-oxo-7,8-dihydropteridin-5(6H)-yl]benzonitrile], the IC50 was not above 100 nM.

With `COc1ccc(N2C(=O)[C@@H](C)N([C@H]3CC[C@@H](C)CC3)c3nc(Nc4cc(F)c5[nH]ncc5c4)ncc32)cc1OC` [compound 238, (7R)-5-(3,4-dimethoxyphenyl)-2-[(7-fluoro-1H-indazol-5-yl)amino]-7-methyl-8-(cis-4-methylcyclohexyl)-7,8-dihydropteridin-6(5H)-one], the IC50 is not above 100 nM. Next, `COc1ccc(N2C(=O)[C@@H](C)N([C@H]3CC[C@H](C)CC3)c3nc(Nc4cc(F)c5[nH]ncc5c4)ncc32)cc1OC` [compound 239, (7R)-5-(3,4-dimethoxyphenyl)-2-[(7-fluoro-1H-indazol-5-yl)amino]-7-methyl-8-(trans-4-methylcyclohexyl)-7,8-dihydropteridin-6(5H)-one]: not above 100 nM; `C[C@@H]1C(=O)N(c2cccnc2)c2cnc(Nc3cc(F)c4[nH]ncc4c3)nc2N1[C@H]1CC[C@@H](C)CC1` [compound 240, (7R)-2-[(7-fluoro-1H-indazol-5-yl)amino]-7-methyl-8-(cis-4-methylcyclohexyl)-5-(pyridin-3-yl)-7,8-dihydropteridin-6(5H)-one]: not above 100 nM. Next, `C[C@@H]1C(=O)N(c2ccc(N3CCN(C)CC3)nc2)c2cnc(Nc3cc(F)c4[nH]ncc4c3)nc2N1[C@H]1CC[C@H](C)CC1` [compound 242, (7R)-2-[(7-fluoro-1H-indazol-5-yl)amino]-7-methyl-8-(trans-4-methylcyclohexyl)-5-[6-(4-methylpiperazin-1-yl)pyridin-3-yl]-7,8-dihydropteridin-6(5H)-one]: not above 100 nM.

For the molecule `C[C@@H]1C(=O)N(c2cccc(C#N)c2)c2cnc(Nc3cc(F)c(O)c(F)c3)nc2N1[C@H]1CC[C@H](C)CC1` [compound 243, 3-[(7R)-2-[(3,5-difluoro-4-hydroxyphenyl)amino]-7-methyl-8-(trans-4-methylcyclohexyl)-6-oxo-7,8-dihydropteridin-5(6H)-yl]benzonitrile], the half-inhibitory concentration (IC50) was not above 100 nM. Next, `COc1ccc(N2C(=O)[C@@H](C)N([C@H]3CC[C@H](C)CC3)c3nc(Nc4ccc5[nH]c(=O)oc5c4)ncc32)cc1C#N` [compound 244, 2-methoxy-5-[(7R)-7-methyl-8-(trans-4-methylcyclohexyl)-6-oxo-2-[(2-oxo-2,3-dihydro-1,3-benzoxazol-6-yl)amino]-7,8-dihydropteridin-5(6H)-yl]benzonitrile]: not above 100 nM; `COc1ccc(N2C(=O)[C@@H](C)N([C@H]3CC[C@H](C)CC3)c3nc(Nc4cnc5[nH]ncc5c4)ncc32)cc1C#N` [compound 245, 2-Methoxy-5-[(7R)-7-methyl-8-(trans-4-methylcyclohexyl)-6-oxo-2-(1H-pyrazolo[3,4-b]pyridin-5-ylamino)-7,8-dihydropteridin-5(6H)-yl]benzonitrile]: not above 100 nM; `CCOc1ccc(N2C(=O)[C@@H](C)N([C@H]3CC[C@H](C)CC3)c3nc(Nc4cnc5[nH]ncc5c4)ncc32)cc1C#N` [compound 246, 2-Ethoxy-5-[(7R)-7-methyl-8-(trans-4-methylcyclohexyl)-6-oxo-2-(1H-pyrazolo[3,4-b]pyridin-5-ylamino)-7,8-dihydropteridin-5(6H)-yl]benzonitrile]: not above 100 nM. Next, `CCOc1ccc(N2C(=O)[C@@H](C)N([C@H]3CC[C@H](C)CC3)c3nc(Nc4ccc5[nH]c(=O)oc5c4)ncc32)cc1C#N` [compound 247, 2-Ethoxy-5-[(7R)-7-methyl-8-(trans-4-methylcyclohexyl)-6-oxo-2-[(2-oxo-2,3-dihydro-1,3-benzoxazol-6-yl)amino]-7,8-dihydropteridin-5(6H)-yl]benzonitrile]: not above 100 nM; `CC(C)Oc1ccc(N2C(=O)[C@@H](C)N([C@H]3CC[C@H](C)CC3)c3nc(Nc4cnc5[nH]ncc5c4)ncc32)cc1C#N` [compound 248, 5-[(7R)-7-methyl-8-(trans-4-methylcyclohexyl)-6-oxo-2-(1H-pyrazolo[3,4-b]pyridin-5-ylamino)-7,8-dihydropteridin-5(6H)-yl]-2-(propan-2-yloxy)benzonitrile]: not above 100 nM. The same measure for `CC(C)Oc1ccc(N2C(=O)[C@@H](C)N([C@H]3CC[C@H](C)CC3)c3nc(Nc4ccc5[nH]c(=O)oc5c4)ncc32)cc1C#N` [compound 249, 5-[(7R)-7-methyl-8-(trans-4-methylcyclohexyl)-6-oxo-2-[(2-oxo-2,3-dihydro-1,3-benzoxazol-6-yl)amino]-7,8-dihydropteridin-5(6H)-yl]-2-(propan-2-yloxy)benzonitrile]: not above 100 nM; for `C[C@@H]1C(=O)N(c2cccc(C#N)c2)c2cnc(Nc3ccc4c(c3)CS(=O)(=O)N4)nc2N1[C@H]1CC[C@H](C)CC1` [compound 250, 3-[(7R)-2-[(2,2-dioxido-1,3-dihydro-2,1-benzothiazol-5-yl)amino]-7-methyl-8-(trans-4-methylcyclohexyl)-6-oxo-7,8-dihydropteridin-5(6H)-yl]benzonitrile]: 100 to 1000 nM.

As for `C[C@@H]1C(=O)N(c2ccc(N3CCN(C)CC3)c(C#N)c2)c2cnc(Nc3cc(F)c4[nH]ncc4c3)nc2N1[C@H]1CC[C@H](C)CC1` [compound 251, 5-[(7R)-2-[(7-fluoro-1H-indazol-5-yl)amino]-7-methyl-8-(trans-4-methylcyclohexyl)-6-oxo-7,8-dihydropteridin-5(6H)-yl]-2-(4-methylpiperazin-1-yl)benzonitrile], the IC50 was not above 100 nM. For `C[C@@H]1C(=O)N(c2ccc(N3CCN(C)CC3)c(C#N)c2)c2cnc(Nc3cnc4[nH]ncc4c3)nc2N1[C@H]1CC[C@H](C)CC1` [compound 252, 5-[(7R)-7-methyl-8-(trans-4-methylcyclohexyl)-6-oxo-2-(1H-pyrazolo[3,4-b]pyridin-5-ylamino)-7,8-dihydropteridin-5(6H)-yl]-2-(4-methylpiperazin-1-yl)benzonitrile], the IC50 is not above 100 nM. The same measure for `C[C@@H]1C(=O)N(c2cccnc2)c2cnc(Nc3cc(F)c4[nH]ncc4c3)nc2N1[C@H]1CC[C@@H](C(F)(F)F)CC1` [compound 255, (7R)-2-[(7-fluoro-1H-indazol-5-yl)amino]-7-methyl-5-(pyridin-3-yl)-8-[cis-4-(trifluoromethyl)cyclohexyl]-7,8-dihydropteridin-6(5H)-one]: not above 100 nM; for `C[C@@H]1C(=O)N(c2cccnc2)c2cnc(Nc3cc(F)c4[nH]ncc4c3)nc2N1[C@H]1CC[C@H](C(F)(F)F)CC1` [compound 256]: not above 100 nM; for `COc1ccc(N2C(=O)[C@@H](C)N([C@H]3CC[C@@H](C(F)(F)F)CC3)c3nc(Nc4cc(F)c5[nH]ncc5c4)ncc32)cc1OC` [compound 257, (7R)-5-(3,4-dimethoxyphenyl)-2-[(7-fluoro-1H-indazol-5-yl)amino]-7-methyl-8-[cis-4-(trifluoromethyl)cyclohexyl]-7,8-dihydropteridin-6(5H)-one]: not above 100 nM.

Turning to `COc1ccc(N2C(=O)[C@@H](C)N([C@H]3CC[C@H](C(F)(F)F)CC3)c3nc(Nc4cc(F)c5[nH]ncc5c4)ncc32)cc1OC` [compound 258, (7R)-5-(3,4-dimethoxyphenyl)-2-[(7-fluoro-1H-indazol-5-yl)amino]-7-methyl-8-[trans-4-(trifluoromethyl)cyclohexyl]-7,8-dihydropteridin-6(5H)-one], the IC50 was not above 100 nM. For the molecule `C[C@@H]1C(=O)N(c2cccc(C#N)c2)c2cnc(Nc3cc(F)c(O)c(F)c3)nc2N1[C@H]1CC[C@H](C(F)(F)F)CC1` [compound 259, 3-[(7R)-2-[(3,5-difluoro-4-hydroxyphenyl)amino]-7-methyl-6-oxo-8-[trans-4-(trifluoromethyl)cyclohexyl]-7,8-dihydropteridin-5(6H)-yl]benzonitrile], the half-maximal inhibitory concentration (IC50) was not above 100 nM. Next, `C[C@@H]1C(=O)N(c2cccc(C#N)c2)c2cnc(Nc3ccc4[nH]ncc4c3)nc2N1C1CCC(F)(F)CC1` [compound 261, 3-[(7R)-8-(4,4-difluorocyclohexyl)-2-(1H-indazol-5-ylamino)-7-methyl-6-oxo-7,8-dihydropteridin-5(6H)-yl]benzonitrile]: not above 100 nM. The same measure for `COc1ccc(N2C(=O)[C@@H](C)N(C3CCC(F)(F)CC3)c3nc(Nc4cc(F)c5[nH]ncc5c4)ncc32)cc1OC` [compound 262, (7R)-8-(4,4-difluorocyclohexyl)-5-(3,4-dimethoxyphenyl)-2-[(7-fluoro-1H-indazol-5-yl)amino]-7-methyl-7,8-dihydropteridin-6(5H)-one]: not above 100 nM.

Regarding `C[C@@H]1C(=O)N(c2cccc(F)c2)c2cnc(Nc3cc(F)c4[nH]ncc4c3)nc2N1C1CCC(F)(F)CC1` [compound 263, (7R)-8-(4,4-difluorocyclohexyl)-2-[(7-fluoro-1H-indazol-5-yl)amino]-5-(3-fluorophenyl)-7-methyl-7,8-dihydropteridin-6(5H)-one], the half-maximal inhibitory concentration (IC50) is not above 100 nM. Next, `C[C@@H]1C(=O)N(c2cccnc2)c2cnc(Nc3cc(F)c4[nH]ncc4c3)nc2N1C1CCC(F)(F)CC1` [compound 264, (7R)-8-(4,4-difluorocyclohexyl)-2-[(7-fluoro-1H-indazol-5-yl)amino]-7-methyl-5-(pyridin-3-yl)-7,8-dihydropteridin-6(5H)-one]: not above 100 nM; `C[C@@H]1C(=O)N(c2cccc(C#N)c2)c2cnc(Nc3ccc4[nH]c(=O)[nH]c4c3)nc2N1C1CCC(F)(F)CC1` [compound 265, 3-[(7R)-8-(4,4-difluorocyclohexyl)-7-methyl-6-oxo-2-[(2-oxo-2,3-dihydro-1H-benzimidazol-5-yl)amino]-7,8-dihydropteridin-5(6H)-yl]benzonitrile]: more than 1000 nM.
